Data from publication PMC6255377, “New 1-Aryl-3-Substituted Propanol Derivatives as Antimalarial Agents” (Molecules, 2009).
Counter-ions that a name gives are not always drawn. Like-named read-outs stand apart in the source and are kept apart here.

Key:
[1] = test system: P. falciparum 3D7 strain, chloroquine sensitive; test: In vitro antimalarial activity screening (SYBR Green I micromethod); type: cell-based; settings: Plasmodium falciparum, 3D7, 48 h incubation, mean of two experiments in triplicate, read-out: P. falciparum 3D7 IC50
Method: The SYBR^©GreenI-based micromethod was followed for testing the antimalarial activity of the compounds. Erythrocytic stages of P. falciparum 3D7 strain, chloroquine sensitive, were maintained in RPMI 1640 culture medium supplemented with 0.5% Albumax II at 37 °C in an atmosphere with 5% CO2. […] Next, stock solutions of each compound were prepared in DMSO and diluted in RPMI medium in order to obtain concentrations from 10 to 0.01 µg/mL. […] All compounds and controls were placed in triplicate. The plate was incubated under the same conditions. After 48 h, the plate was removed from the incubator and frozen for at least 1 h at -70 °C and then thawed. Finally, 100 µL of SYBR^©GreenI in lysis buffer (0.2 µL/mL) was added per well and shaken for 5 minutes or until no precipitated erythrocytes were observed. The plate was left to stand in the dark for 1 h at room temperature. Fluorescence intensity (FI) for each well was measured. The background of the nonparasitized erythrocytes was subtracted from each well tested.

SMILES	melting point [°C]	IC50 ([1]; Table 1) [µM]	IC50 ([1]; Table 2) [µM]
O=C(CCN1CCCN(c2ccc([N+](=O)[O-])cc2)CC1)c1csc2ccccc12 (as salt: hydrochloride) [Compound 9, 1-(benzo[b]thiophen-3-yl)-3-[4-(4-nitrophenyl)-1,4-diazepan-1-yl]propan-1-one]	121 to 123	–	–
COc1cccc(N2CCN(CCC(O)c3csc4ccc(F)cc34)CC2)c1 (stereo not drawn) (as salt: hydrochloride) [Compound 16, 1-(5-fluorobenzo[b]thiophen-3-yl)-3-[4-(3-methoxyphenyl)piperazin-1-yl]propan-1-ol]	135 to 137	–	–
COc1ccccc1N1CCN(CCC(O)c2ccc3cc(C)ccc3c2)CC1 (stereo not drawn) (as salt: hydrochloride) [Compound 44, 1-(6-methylnapth-2-yl)-3-[4-(2-methoxyphenyl)piperazin-1-yl]propan-1-ol]	116 to 117	–	–
O=[N+]([O-])c1ccc([C@@]2(NCCC(O)c3ccc4ccccc4c3)CCNC2)c(C(F)(F)F)c1 (stereo partly drawn) (as salt: hydrochloride) [Compound 45, 1-(2-naphthyl)-3-[3-(4-nitro-2-trifluoromethylphenyl)-(S)-pyrrolidin-3-ylamino]-propan-1-ol]	181 to 183	–	–
O=C(CCN1CCN(c2cccc3ccccc23)CC1)c1csc2ccc(F)cc12 [Compound 1]	–	> 20	–
COc1ccccc1N1CCN(CCC(=O)c2csc3ccc(F)cc23)CC1 [Compound 2]	–	> 20	–
COc1ccccc1N1CCN(CCC(=O)c2csc3ccccc23)CC1 [Compound 3]	–	> 20	–
O=C(CCN1CCN(c2cccc3cccnc23)CC1)c1csc2ccc(F)cc12 [Compound 4]	–	> 20	–
O=C(CCN1CCN(c2ccc([N+](=O)[O-])cc2C(F)(F)F)CC1)c1csc2ccccc12 [Compound 6, 1-(Benzo[b]thiophen-3-yl)-3-[4-(4-nitro-2-trifluoromethylphenyl)piperazin-1-yl]propan-1-ona]	140 to 141	> 20	–
O=C(CCN1CC[C@@H](Nc2ccc([N+](=O)[O-])cc2C(F)(F)F)C1)c1csc2ccccc12 [Compound 7, 1-(Benzo[b]thiophen-3-yl)-3-[3-(4-nitro-2-trifluoromethylphenylamino)-(R)-pyrrolidin-1-yl] propan-1-one]	98 to 100	> 20	–
O=C(CCNC1CCN(c2ccc([N+](=O)[O-])cc2)CC1)c1csc2ccccc12 [Compound 8, 1-(Benzo[b]thiophen-3-yl)-3-[1-(4-nitrophenyl)piperidin-4-ylamino]propan-1-one]	144 to 145	> 20	–
O=C(CCN1CCCN(c2ccc([N+](=O)[O-])cc2)CC1)c1csc2ccccc12 [Compound 9, 1-(benzo[b]thiophen-3-yl)-3-[4-(4-nitrophenyl)-1,4-diazepan-1-yl]propan-1-one]	–	> 20	–
O=C(CCN1CCN(c2cnc3ccccc3n2)CC1)c1csc2ccccc12 [Compound 10, 1-(Benzo[b]thiophen-3-yl)-3-[4-(quinoxalin-2-yl)piperazin-1-yl]propan-1-one]	145 to 146	> 20	–
COc1cccc(N2CCN(CCC(O)c3csc4ccc(F)cc34)CC2)c1 (stereo not drawn) [Compound 16, 1-(5-fluorobenzo[b]thiophen-3-yl)-3-[4-(3-methoxyphenyl)piperazin-1-yl]propan-1-ol]	–	1.67	–
OC(CCN1CCN(c2cccc3c2OCCO3)CC1)c1csc2ccc(F)cc12 (stereo not drawn) [Compound 27]	–	0.9	–
O=[N+]([O-])c1ccc(N2CCN(CCC(O)c3csc4ccccc34)CC2)c(C(F)(F)F)c1 (stereo not drawn) [Compound 28, 1-(Benzo[b]thiophen-3-yl)-3-[4-(4-nitro-2-trifluoromethylphenyl)piperazin-1-yl]propan-1-ol]	154 to 155	0.68	–

SMILES	melting point [°C]	IC50 ([1]; Table 1) [µM]	IC50 ([1]; Table 2) [µM]
O=[N+]([O-])c1ccc(N[C@@H]2CCN(CCC(O)c3csc4ccccc34)C2)c(C(F)(F)F)c1 (stereo partly drawn) [Compound 29, 1-(Benzo[b]thiophen-3-yl)-3-[3-(4-nitro-2-trifluoromethylphenylamino)-(R)-pyrrolidin-1-yl]propan-1-ol]	48 to 50	2.99	–
O=[N+]([O-])c1ccc(N2CC[C@H](NCCC(O)c3csc4ccccc34)C2)c(C(F)(F)F)c1 (stereo partly drawn) [Compound 30, 1-(Benzo[b]thiophen-3-yl)-3-[1-(4-nitro-2-trifluoromethylphenyl)-(S)-pyrrolidin-3-ylamino]propan-1-ol]	109 to 110	0.97	–
O=[N+]([O-])c1ccc(N2CCN(CCC(O)c3csc4ccc(F)cc34)CC2)cc1 (stereo not drawn) [Compound 32, 1-(5-Fluorobenzo[b]thiophen-3-yl)-3-[4-(4-nitrophenyl)piperazin-1-yl]propan-1-ol]	189 to 190	> 20	–
O=[N+]([O-])c1ccc(N2CCC(NCCC(O)c3csc4ccccc34)CC2)cc1 (stereo not drawn) [Compound 33, 1-(Benzo[b]thiophen-3-yl)-3-(1-(4-nitrophenyl)piperidin-4-ylamino)propan-1-ol]	153 to 155	1	–
OC(CCN1CCN(c2ccc(Cl)cc2)CC1)c1ccsc1 (stereo not drawn) [Compound 36]	–	–	> 20
OC(CCN1CCN(c2ccc(Cl)cc2)CC1)c1ccccc1 (stereo not drawn) [Compound 37]	–	–	13
OC(CCN1CCN(c2ccc(Cl)cc2)CC1)c1ccc(-c2ccccc2)cc1 (stereo not drawn) [Compound 38, 1-(4-Phenyl)phenyl-3-[4-(4-chlorophenyl)piperazin-1-yl]propan-1-ol]	169 to 170	–	> 20
COc1ccccc1N1CCN(CCC(O)c2ccccc2)CC1 (stereo not drawn) [Compound 39]	–	–	> 20
COc1ccccc1N1CCN(CCC(O)c2ccc(-c3ccccc3)cc2)CC1 (stereo not drawn) [Compound 40, 1-(4-Phenyl)phenyl-3-[4-(2-methoxyphenyl)piperazin-1-yl]propan-1-ol]	109 to 110	–	14.6
COc1ccccc1N1CCN(CCC(O)c2c[nH]c3ccccc23)CC1 (stereo not drawn) [Compound 41, 1-(3-Indolyl)-3-[4-(2-methoxyphenyl)piperazin-1-yl]propan-1-ol]	188 to 189	–	> 20
COc1ccccc1N1CCN(CCC(O)c2ccc3ccccc3c2)CC1 (stereo not drawn) [Compound 42]	–	–	0.83
COc1ccccc1N1CCN(CCC(O)c2ccc(C)cc2C)CC1 (stereo not drawn) [Compound 43]	–	–	16.9
COc1ccccc1N1CCN(CCC(O)c2ccc3cc(C)ccc3c2)CC1 (stereo not drawn) [Compound 44, 1-(6-methylnapth-2-yl)-3-[4-(2-methoxyphenyl)piperazin-1-yl]propan-1-ol]	–	–	9.64
O=[N+]([O-])c1ccc([C@@]2(NCCC(O)c3ccc4ccccc4c3)CCNC2)c(C(F)(F)F)c1 (stereo partly drawn) [Compound 45, 1-(2-naphthyl)-3-[3-(4-nitro-2-trifluoromethylphenyl)-(S)-pyrrolidin-3-ylamino]-propan-1-ol]	–	–	9.1
Cc1ccc(C(O)CCN2CCN(c3ccccc3O)CC2)c(C)c1 (stereo not drawn) [Compound 46]	–	–	18.2

Second part, the compound after the results:

melting point [°C]	IC50 ([1]; Table 1) [µM]	IC50 ([1]; Table 2) [µM]	SMILES
–	> 20	–	Cc1ccc2cccc(N3CCN(CCC(=O)c4csc5ccccc45)CC3)c2n1 [Compound 5]
–	6.13	–	OC(CCN1CCN(c2cccc3ccccc23)CC1)c1csc2ccccc12 (stereo not drawn) [Compound 11]
–	1.07	–	COc1ccccc1N1CCN(CCC(O)c2csc3ccccc23)CC1 (stereo not drawn) [Compound 13]
–	13.7	–	Oc1ccccc1N1CCN(CCC(O)c2csc3ccccc23)CC1 (stereo not drawn) [Compound 14]
–	6.99	–	OC(CCN1CCN(c2cccc3[nH]ccc23)CC1)c1csc2ccccc12 (stereo not drawn) [Compound 17]
–	3.81	–	OC(CCN1CCN(c2cccc3[nH]ccc23)CC1)c1csc2ccc(F)cc12 (stereo not drawn) [Compound 18]
–	5.65	–	OC(CCN1CCN(c2ccc(Cl)cc2)CC1)c1csc2ccccc12 (stereo not drawn) [Compound 19]
–	2.15	–	OC(CCN1CCN(c2cccc3cccnc23)CC1)c1csc2ccccc12 (stereo not drawn) [Compound 20]
–	0.79	–	OC(CCN1CCN(c2cccc3cccnc23)CC1)c1csc2ccc(F)cc12 (stereo not drawn) [Compound 21]
–	0.66	–	Cc1ccc2cccc(N3CCN(CCC(O)c4csc5ccccc45)CC3)c2n1 (stereo not drawn) [Compound 22]
–	1.3	–	OC(CCN1CCN(c2cccc3ncccc23)CC1)c1csc2ccccc12 (stereo not drawn) [Compound 24]
–	2.22	–	OC(CCN1CCN(c2ccc3ccccc3n2)CC1)c1csc2ccccc12 (stereo not drawn) [Compound 25]
–	3.56	–	OC(CCN1CCN(c2cccc3c2OCCO3)CC1)c1csc2ccccc12 (stereo not drawn) [Compound 26]
47 to 48	3.43	–	O=[N+]([O-])c1ccc(N2CCCN(CCC(O)c3csc4ccccc34)CC2)cc1 (stereo not drawn) [Compound 34, 1-(Benzo[b]thiophen-3-yl)-3-(4-(4-nitrophenyl)-1,4-diazepan-1-yl)propan-1-ol]
155 to 156	0.62	–	OC(CCN1CCN(c2cnc3ccccc3n2)CC1)c1csc2ccccc12 (stereo not drawn) [Compound 35, 1-(Benzo[b]thiophen-3-yl)-3-(4-(quinoxalin-2-yl)piperazin-1-yl)propan-1-ol]
